Results on 28 compounds are retold here after patent US8436036B2, “Diaryl ethers” (Janssen R&D Ireland, priority 2009, dated 2013).

Molecules are shown by their SMILES.

In one series the test system is HCV replicon. In words: HCV replicon assay (Huh-Luc cells, luciferase read-out). Type of series: cell-based, HCV type Ib. The following applies: Hepatitis C virus, 72 h, three days incubation, luciferase activity. From the text: The compounds of formula (I) were examined for inhibitory activity in the HCV replicon. This cellular assay is based on a bicistronic expression construct, as described by Lohmann et al. (1999) Science vol. 285 pp. 110-113 with modifications described by Krieger et al. (2001) Journal of Virology 75: 4614-4624, in a multi-target screening strategy.
In essence, the method was as follows:
The assay utilized the stably transfected cell line Huh-7 luc/neo (hereafter referred to as Huh-Luc). This cell line harbors an RNA encoding a bicistronic expression construct comprising the wild type NS3-NS5B regions of HCV type Ib translated from an Internal Ribosome Entry Site (IRES) from encephalomyocarditis virus (EMCV), preceded by a reporter portion (FfL-luciferase), and a selectable marker portion (neo^R, neomycine phosphotransferase). The construct is flanked by 5′ and 3′ NTRs (non-translated regions) from HCV type Ib. Continued culture of the replicon cells in the presence of G418 (neo^R) is dependent on the replication of the HCV RNA. The stably transfected replicon cells that express HCV RNA, which replicates autonomously and to high levels, encoding inter alia luciferase, were used for screening the antiviral compounds.
The replicon cells were plated in 384 well plates in the presence of the test and control compounds which were added in various concentrations. Following an incubation of three days, HCV replication was measured by assaying luciferase activity (using standard luciferase assay substrates and reagents and a Perkin Elmer ViewLux™ ultraHTS microplate imager). Replicon cells in the control cultures have high luciferase expression in the absence of any inhibitor. The inhibitory activity of the compound on luciferase activity was monitored on the Huh-Luc cells, enabling a dose-response curve for each test compound. EC50 values were then calculated, which represent the amount of compound required to decrease the level of detected luciferase activity by 50%, or more specifically, to reduce the ability of the genetically linked HCV replicon RNA to replicate.
On the technique in general: In antiviral work, replicon cells carry a viral genome segment that copies itself.

A further series in a line: Cytotoxicity (Huh-7). The format is cell-based. Conditions: human, Huh-7 cells. From the text:
The in vitro antiviral activity against HCV of the compounds of formula I can be tested in a cellular HCV replicon system based on Lohmann et al. (1999) Science 285:110-113, with the further modifications described by Krieger et al. (2001) Journal of Virology 75: 4614-4624 (incorporated herein by reference), which is further exemplified in the examples section. This model, while not a complete infection model for HCV, is widely accepted as the most robust and efficient model of autonomous HCV RNA replication currently available. It will be appreciated that it is important to distinguish between compounds that specifically interfere with HCV functions from those that exert cytotoxic or cytostatic effects in the HCV replicon model, and as a consequence cause a decrease in HCV RNA or linked reporter enzyme concentration. Assays are known in the field for the evaluation of cellular cytotoxicity based for example on the activity of mitochondrial enzymes using fluorogenic redox dyes such as resazurin. Furthermore, cellular counter screens exist for the evaluation of non-selective inhibition of linked reporter gene activity, such as firefly luciferase. Appropriate cell types can be equipped by stable transfection with a luciferase reporter gene whose expression is dependent on a constitutively active gene promoter, and such cells can be used as a counter-screen to eliminate non-selective inhibitors.

As for `Cc1cccc(CC(=O)N2CCC[C@H]2c2nc(-c3cccc(Oc4ccc(-c5cnc([C@@H]6CCCN6C(=O)Cc6cccc(C)c6)[nH]5)cc4)c3)c[nH]2)c1` [Example 11, 2-m-tolyl-1-((2S)-2-(5-(4-(3-(2-((S)-1-(2-m-tolylacetyl)pyrrolidin-2-yl)-1H-imidazol-4-yl)phenoxy)phenyl)-1H-imidazol-2-yl)pyrrolidin-1-yl)ethanone], the EC50 (commonly the midpoint of the concentration-response curve) in the series with HCV replicon stood at 6180 nM. For the same compound, the CC50 (as a rule, the concentration that lowers cell viability or growth by half) in “Cytotoxicity (Huh-7)” is greater than 31.5 µM.
The matching figures for `CC(C)C[C@@H](C(=O)N1CCC[C@H]1c1nc(-c2cccc(Oc3ccc(-c4cnc([C@@H]5CCCN5C(=O)[C@H](CC(C)C)N(C)C)[nH]4)cc3)c2)c[nH]1)N(C)C` [Example 36]: 3030 nM and 7.76 µM.
Turning to `COC(=O)N[C@H](C(=O)N1CCC[C@H]1c1ncc(-c2ccc(Oc3cccc(-c4cnc([C@@H]5CCCN5C(=O)[C@@H](NC(=O)OC)C(C)(C)C)[nH]4)c3)cc2)[nH]1)C(C)(C)C` [Example 40], the EC50 in the series on HCV replicon stood at 0.165 nM. The compound further registered a CC50 in the series “Cytotoxicity (Huh-7)” of 12.6 µM.
With `O=C(CC1CCCCC1)N1CCC[C@H]1c1nc(-c2cccc(Oc3ccc(-c4cnc([C@@H]5CCCN5C(=O)CC5CCCCC5)[nH]4)cc3)c2)c[nH]1` [Example 28], in the series on HCV replicon, the EC50 is 5470 nM. In the series “Cytotoxicity (Huh-7)”, this compound had a CC50 greater than 31.5 µM.
The matching figures for `CN(C)[C@@H](C(=O)N1CCC[C@H]1c1ncc(-c2ccc(Oc3cccc(-c4cnc([C@@H]5CCCN5C(=O)[C@@H](c5ccccc5)N(C)C)[nH]4)c3)cc2)[nH]1)c1ccccc1` [Example 43]: 0.114 nM and 0.7 µM.
For `O=C([C@H]1CCCO1)N1CCC[C@H]1c1nc(-c2cccc(Oc3ccc(-c4cnc([C@@H]5CCCN5C(=O)[C@H]5CCCO5)[nH]4)cc3)c2)c[nH]1` [Example 22], the EC50 in the series with HCV replicon worked out at 1090 nM. Moreover, the CC50 in “Cytotoxicity (Huh-7)” was greater than 31.5 µM.
For the compound `COC(=O)N[C@H](C(=O)N1CCC[C@H]1c1nc(-c2cccc(Oc3ccc(-c4cnc([C@@H]5CCCN5C(=O)[C@@H](NC(=O)OC)C(C)C)[nH]4)cc3)c2)c[nH]1)C(C)C` [Example 42], the concentration giving a half-maximal response (EC50) with HCV replicon came out at 0.0433 nM. Also, in the series “Cytotoxicity (Huh-7)”, the midpoint of cytotoxicity, the CC50, lay at 18.6 µM.
On to `O=C(C(O)c1ccccc1)N1CCC[C@H]1c1nc(-c2cccc(Oc3ccc(-c4cnc([C@@H]5CCCN5C(=O)C(O)c5ccccc5)[nH]4)cc3)c2)c[nH]1` (stereo partly drawn) [Example 10, 2-hydroxy-1-((2S)-2-(5-(4-(3-(2-((2S)-1-(2-hydroxy-2-phenylacetyl)-pyrrolidin-2-yl)-1H-imidazol-4-yl)phenoxy)phenyl)-1H-imidazol-2-yl)pyrrolidin-1-yl)-2-phenylethanone], for which the EC50 in the series with HCV replicon was less than 0.5 nM. The compound further registered a CC50 in “Cytotoxicity (Huh-7)” of 4.86 µM.
The matching figures for `COC(=O)N[C@H](C(=O)N1CCC[C@H]1c1ncc(-c2ccc(Oc3cccc(-c4cnc([C@@H]5CCCN5C(=O)[C@@H](NC(=O)OC)[C@@H](C)OC)[nH]4)c3)cc2)[nH]1)[C@@H](C)OC` [Example 39]: 0.0794 nM and greater than 31.5 µM.
Regarding `O=C(Cc1ccccc1OC(F)(F)F)N1CCC[C@H]1c1nc(-c2cccc(Oc3ccc(-c4cnc([C@@H]5CCCN5C(=O)Cc5ccccc5OC(F)(F)F)[nH]4)cc3)c2)c[nH]1` [Example 24], in the series with HCV replicon, the EC50 came to 14.4 nM. Moreover, the CC50 in the series “Cytotoxicity (Huh-7)” is greater than 31.5 µM.
In the case of `O=C(C(c1ccccc1)n1ccnc1)N1CCC[C@H]1c1nc(-c2cccc(Oc3ccc(-c4cnc([C@@H]5CCCN5C(=O)C(c5ccccc5)n5ccnc5)[nH]4)cc3)c2)c[nH]1` (stereo partly shown) [Example 35], the EC50 in the series with HCV replicon is 4.72 nM. In addition, the CC50 in the series “Cytotoxicity (Huh-7)” was greater than 31.5 µM.
The matching figures for `O=C(CCc1ccccc1F)N1CCC[C@H]1c1nc(-c2cccc(Oc3ccc(-c4cnc([C@@H]5CCCN5C(=O)CCc5ccccc5F)[nH]4)cc3)c2)c[nH]1` [Example 26]: 2310 nM and greater than 31.5 µM.
The matching figures for `Cc1nc(C(=O)N2CCC[C@H]2c2nc(-c3cccc(Oc4ccc(-c5cnc([C@@H]6CCCN6C(=O)c6nc(C)oc6C)[nH]5)cc4)c3)c[nH]2)c(C)o1` [Example 33]: 864 nM and greater than 31.5 µM.
The matching figures for `O=C(Cc1ccccc1)N1CCC[C@H]1c1ncc(-c2ccc(Oc3ccc(-c4cnc([C@@H]5CCCN5C(=O)Cc5ccccc5)[nH]4)cc3)cc2)[nH]1` [Example 49]: 1120 nM and greater than 31.5 µM.
With `O=C(c1cccnc1)N1CCC[C@H]1c1nc(-c2cccc(Oc3ccc(-c4cnc([C@@H]5CCCN5C(=O)c5cccnc5)[nH]4)cc3)c2)c[nH]1` [Example 38], the EC50 in the series on HCV replicon was 1270 nM. In addition, in “Cytotoxicity (Huh-7)”, the CC50 was greater than 31.5 µM.
As to `O=C(C(=O)N1CCC[C@H]1c1nc(-c2cccc(Oc3ccc(-c4cnc([C@@H]5CCCN5C(=O)C(=O)c5ccccc5)[nH]4)cc3)c2)c[nH]1)c1ccccc1` [Example 20], in the series with HCV replicon, the EC50 is 58.2 nM. The cytotoxic concentration (CC50) in “Cytotoxicity (Huh-7)” is greater than 31.5 µM.
Take `CN(C)C(C(=O)N1CCC[C@H]1c1nc(-c2cccc(Oc3ccc(-c4cnc([C@@H]5CCCN5C(=O)C(c5ccc(Cl)cc5)N(C)C)[nH]4)cc3)c2)c[nH]1)c1ccc(Cl)cc1` (stereo partly shown) [Example 30]: in the series with HCV replicon, the EC50 came out at 3.62 nM. Besides, the CC50 in the series “Cytotoxicity (Huh-7)” is 4.6 µM.
The matching figures for `CN(C)CCC(=O)N1CCC[C@H]1c1nc(-c2cccc(Oc3ccc(-c4cnc([C@@H]5CCCN5C(=O)CCN(C)C)[nH]4)cc3)c2)c[nH]1` [Example 41]: 1240 nM and greater than 31.5 µM.
`COc1c(F)cc(CC(=O)N2CCC[C@H]2c2nc(-c3cccc(Oc4ccc(-c5cnc([C@@H]6CCCN6C(=O)Cc6cc(F)c(OC)c(F)c6)[nH]5)cc4)c3)c[nH]2)cc1F` [Example 25]: the EC50 with HCV replicon amounted to 3390 nM. In the series “Cytotoxicity (Huh-7)”, the CC50 was greater than 31.5 µM.
With `COC(=O)N[C@H](C(=O)N1CCC[C@H]1c1nc(-c2ccc(Oc3ccc(OC)c(-c4c[nH]c([C@@H]5CCCN5C(=O)[C@@H](NC(=O)OC)C(C)C)n4)c3)cc2)c[nH]1)C(C)C` [Example 45], in the series with HCV replicon, the EC50 was 62.7 nM. In the series “Cytotoxicity (Huh-7)”, this compound returned a CC50 of 1.66 µM.
The matching figures for `CCN(CC)[C@@H](C(=O)N1CCC[C@H]1c1nc(-c2cccc(Oc3ccc(-c4cnc([C@@H]5CCCN5C(=O)[C@@H](c5ccccc5)N(CC)CC)[nH]4)cc3)c2)c[nH]1)c1ccccc1` [Example 44]: 0.12 nM and 0.78 µM.
The matching figures for `O=C(Cc1ccc2c(c1)OCO2)N1CCC[C@H]1c1nc(-c2cccc(Oc3ccc(-c4cnc([C@@H]5CCCN5C(=O)Cc5ccc6c(c5)OCO6)[nH]4)cc3)c2)c[nH]1` [Example 19]: 1070 nM and greater than 31.5 µM.
Take `O=C([C@@H](O)c1ccccc1)N1CCC[C@H]1c1nc(-c2cccc(Oc3ccc(-c4cnc([C@@H]5CCCN5C(=O)[C@@H](O)c5ccccc5)[nH]4)cc3)c2)c[nH]1` [Example 23]: the EC50 in the series on HCV replicon was found to be 60.8 nM. For the same compound, the CC50 in the series “Cytotoxicity (Huh-7)” stood at 3.66 µM.
For the compound `COc1ccc(Oc2ccc(-c3c[nH]c([C@@H]4CCCN4C(=O)[C@@H](c4ccccc4)N(C)C)n3)cc2)cc1-c1c[nH]c([C@@H]2CCCN2C(=O)[C@@H](c2ccccc2)N(C)C)n1` [Example 47], in the series with HCV replicon, the EC50 worked out at 0.705 nM.
Turning to `CC(C)[C@@H](C(=O)N1CCC[C@H]1c1nc(-c2cccc(Oc3ccc(-c4cnc([C@@H]5CCCN5C(=O)[C@H](C(C)C)N(C)C)[nH]4)cc3)c2)c[nH]1)N(C)C` [Example 31], in the series on HCV replicon, the EC50 was found to be 1160 nM. The CC50 in “Cytotoxicity (Huh-7)” is 2.87 µM.
The matching figures for `O=C(c1ccccn1)N1CCC[C@H]1c1nc(-c2cccc(Oc3ccc(-c4cnc([C@@H]5CCCN5C(=O)c5ccccn5)[nH]4)cc3)c2)c[nH]1` [Example 37]: 15400 nM and greater than 31.5 µM.
Turning to `O=C(CCc1cccnc1)N1CCC[C@H]1c1nc(-c2cccc(Oc3ccc(-c4cnc([C@@H]5CCCN5C(=O)CCc5cccnc5)[nH]4)cc3)c2)c[nH]1` [Example 29], the EC50 with HCV replicon was 3.98 nM. In “Cytotoxicity (Huh-7)”, this compound returned a CC50 greater than 31.5 µM.
Turning to `COC(=O)NC(C(=O)N1CCC[C@H]1c1nc(-c2ccc(Oc3ccc(OC)c(-c4cnc([C@@H]5CCCN5C(=O)C(NC(=O)OC)c5ccccc5)[nH]4)c3)cc2)c[nH]1)c1ccccc1` (stereo partly shown) [Example 46], in the series on HCV replicon, the EC50 is greater than 980 nM. The compound further came in with a cytotoxic concentration (CC50) in the series “Cytotoxicity (Huh-7)” greater than 98.4 µM.
